Where two headings read alike, the source gives them in different places.
Key:
HIV-RT = HIV-RT (Human immunodeficiency virus type 1 group M subtype B, UniProt P03366); assay: HIV-RT inhibition by AZT-TP, lavendamycin analogs and their combinations; assay type: biochemical; parameters: unit of the concentration uncertain; conditions: AZT-TP Conc. 0 (unit uncertain); for % inh. ave.: average of three trials
Description: AZT-TP was used for these in vitro studies since AZT is naturally phosphorylated in vivo.
The results of these tests are given in Table XVIII and XIX below, where the percent inhibition of HIV-RT activity is reported for three different trials and then averaged in the seventh column. […] .

[1] = test system: normal rat kidney epithelial (NRKE) cells
[2] = test system: K/1 = ras^K Transformed NRKE Cells; conditions: for Differential Index K/1: K/1 = ras^K transformed NRKE cells, compared with normal NRKE cells
[3] = test system: H/1.2 = ras^H Transformed NRKE Cells; conditions: for Differential Index H/1.2: H/1.2 = ras^H transformed NRKE cells, compared with normal NRKE cells
[4] = test system: N/4.2-NRKE transformed by the human ras^N gene; conditions: for Differential Index N/4.2: N/4.2 = ras^N transformed NRK cells, compared with normal NRKE cells
[5] = test system: 3LL = Lewis Lung Carcinoma Cells; conditions: for Differential Index 3LL: 3LL = Lewis lung carcinoma cells, compared with normal NRKE cells
Leukemia cell lines = assay: NCI in vitro anticancer screen (SRB), leukemia subpanel; conditions: for Activity (Average PG for highest dose tested) Leukemia: 48 hours exposure, average percent growth over the cell lines
Description: (§1) Compounds chosen for the program are initially tested in an in vitro anticancer screen. A total of fifty-five human tumor cell lines, derived from nine cancer types (lung, colon, melanoma, renal, ovarian, brain, prostate, breast and leukemia), are used in this screen. The tumor cells are inoculated over a series of standard 96-well microtiter plates on day 0. These cells are then preincubated on the microtiter plates for 24 hours. The test compounds are added to the wells in five 10-fold dilutions starting from the highest soluble concentration. Each compound is tested against every cell line in the panel. The compounds are incubated for 48 hours with the tumor cell lines. At the termination of the assay, the cells are fixed in situ, washed, and dried. Sulforhodamine B (SRB), a pink anionic dye that binds to the basic amino acids of trichloroacetic acid-fixed cells, is added. The cells are washed again, and the remaining dye is a function of the adherent cell mass. The bound stain is solubilized and measured spectrophotometrically. The data are entered from automatic reading devices into a computer for subsequent storage and analysis.
(§2) The measured effect of each test compound on the cell lines is calculated according to one or the other of the following two expressions:
(§3) If (Mean ODtest−Mean ODtzero)□0, then PG=100×(Mean ODtest−Mean ODtzero)/(Mean ODctrl−Mean ODtzero);
(§4) If (Mean ODtest−Mean ODtzero)<0, then PG=100×(Mean ODtest−Mean ODtzero)/Meantzero;
(§5) First, a data sheet is provided which lists, for each cell line, the Mean ODtzero, the Mean ODctrl, the Mean ODtest for each of the five concentrations, the calculated PGs for each concentration, and the response parameters G150, TGI, and LC50.
(§6) Third, mean graphs at each of the principal response parameters (GI50, TGI, and LC50) are provided. […] Since the bar scale is logarithmic, a bar two units to the right implies the compound achieved the response parameter (e.g., GI50) for the cell line at a concentration 1/100 the mean concentration required over all cell lines, and thus the cell line is unusually sensitive to that compound. Bars extending to the left correspondingly imply sensitivity less than the mean. Thus, the mean graphs facilitate visual scanning of data for potential patterns of selectivity for particular cell lines or for particular subpanels with respect to a selected response parameter.

Melanoma cell lines = assay: NCI in vitro anticancer screen (SRB), melanoma subpanel; conditions: 48 hours exposure; average percent growth over the cell lines
Description: as §1, §2, §3, §4, §5, §6

CNS Cancer cell lines = assay: NCI in vitro anticancer screen (SRB), CNS cancer subpanel; conditions: 48 hours exposure; average percent growth over the cell lines
Description: as §1, §2, §3, §4, §5, §6

Colon Cancer cell lines = assay: NCI in vitro anticancer screen (SRB), colon cancer subpanel; conditions: 48 hours exposure; average percent growth over the cell lines
Description: as §1, §2, §3, §4

Renal Cancer cell lines = assay: NCI in vitro anticancer screen (SRB), renal cancer subpanel; conditions: for Activity (Average PG for highest dose tested) Renal Cancer: 48 hours exposure, average percent growth over the cell lines
Description: as §1, §2, §3, §4, §5, §6

Breast Cancer cell lines = assay: NCI in vitro anticancer screen (SRB), breast cancer subpanel; conditions: 48 hours exposure; average percent growth over the cell lines
Description: as §1, §2, §3, §4

[6] = test system: Ovarian Cancer cell lines; assay: NCI in vitro anticancer screen (SRB), ovarian cancer subpanel; conditions: 48 hours exposure; average percent growth over the cell lines
Description: as §1, §2, §3, §4

[7] = test system: Prostate Cancer cell lines; assay: NCI in vitro anticancer screen (SRB), prostate cancer subpanel; conditions: 48 hours exposure; average percent growth over the cell lines
Description: as §1, §2, §3, §4

[8] = test system: Non-Small Cell Lung Cancer cell lines; assay: NCI in vitro anticancer screen (SRB), non-small cell lung cancer subpanel; conditions: 48 hours exposure; average percent growth over the cell lines
Description: as §1, §2, §3, §4, §5, §6

[9] = found by other investigators; cited from earlier work
[10] = test system: K/1 = ras^K Transformed NRKE Cells; assay: cells; conditions: Rattus norvegicus, read-out: LC50 K/1
[11] = test system: H/1.2 = ras^H Transformed NRKE Cells; assay: cells; conditions: Rattus norvegicus, read-out: LC50 H/1.2
[12] = test system: N/4.2-NRKE transformed by the human ras^N gene; assay: cells; conditions: N42, read-out: LC50 N/4.2
[13] = test system: 3LL = Lewis Lung Carcinoma Cells; assay: cells; conditions: Mus musculus
in vitro = conditions: rat, LC50 NRKE
[14] = test system: K/1-NRKE tumor (ras^K-transformed NRKE cells)
ras oncogene p21 protein = conditions: U.S. Pat. No. 5,158,960; Liu et al.; cited from earlier work
[15] = read-out: LC50 3LL, Table XV (Example 51)
[16] = 120 h, read-out: LC50 3LL, Table VII, concentration giving 50% cell kill, 5 days exposure

Row | SMILES | Differential Index K/1 [2] | Differential Index H/1.2 [3] | Differential Index N/4.2 [4] | Differential Index 3LL [5] | Activity (Average PG for highest dose tested) Leukemia (Leukemia cell lines) | Activity (Average PG for highest dose tested) Melanoma (Melanoma cell lines) | Activity (Average PG for highest dose tested) CNS Cancer (CNS Cancer cell lines) | Activity (Average PG for highest dose tested) Colon Cancer (Colon Cancer cell lines) | Activity (Average PG for highest dose tested) Renal Cancer (Renal Cancer cell lines) | Activity (Average PG for highest dose tested) Breast Cancer (Breast Cancer cell lines) | Activity (Average PG for highest dose tested) Ovarian Cancer [6] | Activity (Average PG for highest dose tested) Prostate Cancer [7] | Activity (Average PG for highest dose tested) Non-Small Cell Lung Cancer [8] | CC50 [10] [µM] | CC50 [11] [µM] | CC50 [12] [µM] | CC50 [13, 15] [µM] | CC50 at 5 days (in vitro) [µM] | other results
1 | CC(=O)NC1=CC(=O)c2ccc(-c3nc(C(N)=O)cc4c3[nH]c3ccccc34)nc2C1=O [Compound 16] | 2.57 | 3.91 | 4.09 | 4.29 | −28.3% | −78.4% | −60.4% | −52.1% | −72.9% | −45.1% | −55.5% | −18.0% | −52.3% |  |  |  |  |  | % inh. Trial 1 (HIV-RT; LA Conc. 3.0 (unit uncertain)): 0%; % inh. Trial 2 (HIV-RT; LA Conc. 3.0 (unit uncertain)): 3%; % inh. Trial 3 (HIV-RT; LA Conc. 3.0 (unit uncertain)): 12%; % inh. ave. (HIV-RT; LA Conc. 3.0 (unit uncertain)): 5.0%; % inh. Trial 1 (HIV-RT; LA Conc. 6.0 (unit uncertain)): 26%; % inh. Trial 2 (HIV-RT; LA Conc. 6.0 (unit uncertain)): 33%; % inh. Trial 3 (HIV-RT; LA Conc. 6.0 (unit uncertain)): 30%; % inh. ave. (HIV-RT; LA Conc. 6.0 (unit uncertain)): 29.7%; % inh. Trial 1 (HIV-RT; LA Conc. .5 (unit uncertain)): 0%; % inh. Trial 2 (HIV-RT; LA Conc. .5 (unit uncertain)): 0%; % inh. Trial 3 (HIV-RT; LA Conc. .5 (unit uncertain)): 0%; % inh. ave. (HIV-RT; LA Conc. .5 (unit uncertain)): 0.0%; CC50 [1]: 0.9 µM; CC50 [2]: 0.35 µM; CC50 [3]: 0.23 µM; CC50 [4]: 0.22 µM; CC50 [5]: 0.21 µM; Selectivity: sensitivity of one of the seven renal cancer cell lines relative to average sensitivity of the fifty-five cell lines (Renal Cancer cell lines; at GI50, TGI and/or LC50, initial screen): One of the seven renal cancer cell lines was about 100 times; selectivity for renal cancer (in words) (Renal Cancer cell lines; repeat cancer screen): did not exhibit the selectivity for renal cancer
2 | Cc1c(C(=O)O)nc(-c2ccc3c(n2)C(=O)C(N)=CC3=O)c2[nH]c3ccccc3c12 [lavendamycin, Lavendamycin] |  |  |  |  |  |  |  |  |  |  |  |  |  |  |  |  |  |  | dose that is lethal [9]: 100 mg/kg/day
3 | Cc1ccc2c(n1)C(=O)C(NC(=O)CCl)=CC2=O [Compound 28, 7-CHLOROACETAMIDO-2-METHYLQUINOLINE-5,8-DIONE] | 0.48 | 1.1 | 0.9 | 1.4 |  |  |  |  |  |  |  |  |  | 6.6 | 2.8 | 3.4 | 2.3 | 3.2 | 
4 | CC(=O)NC1=CC(=O)c2ccc(C)nc2C1=O [Compound 27, 7-ACETAMIDO-2-METHYLQUINOLINE-5,8-DIONE] | 0.3 | 0.9 | 0.8 | 1.8 |  |  |  |  |  |  |  |  |  | 14 | 5 | 5.7 | 2.6 | 2.4 | CC50 ([1]; rat, 5 days): 4.6 µM; CC50 ([10]; 120 h): 5.9 µM; CC50 ([11]; 120 h): 4.4 µM; CC50 [13, 16]: 2 µM
5 | CCCCCCCCOC(=O)c1cc2c([nH]c3ccccc32)c(-c2ccc3c(n2)C(=O)C(NC(C)=O)=CC3=O)n1 [Compound 21] |  |  |  |  | +20.3% | +58.6% | +59.3% | +62.3% | +67.5% | +62.9% | +47.0% | +69.5% | +13.0% |  |  |  |  |  | CC50 [2]: 0.25 µM; selective toxicity against ras^K oncogene bearing tumor cells as compared to the normal, non-transformed cells ([2]; LC50 NRKE divided by LC50 K/1): 132 fold; CC50 [3]: 7.6 µM; CC50 [4]: 9 µM; Number Dead Number Treated ([14]; 150 Mg/Kg/Day IP once daily for 8 days): 0/7; Number Dead Number Treated ([14]; 300 Mg/Kg/Day IP once daily for 8 days): 0/7; toxicity in tumor-bearing nude mice (in words) ([14]; even at doses up to 300 mg/kg/day): little or no toxicity; tumor growth inhibition in vivo (in words) ([14]; summary of Table X): excellent tumor growth inhibition
6 | O=Cc1ccc2c(n1)C(=O)C(NC(=O)CCl)=CC2=O [Compound 24, 7-CHLOROACETAMIDO-2-FORMYLQUINOLINE-5,8-DIONE] | 0.6 | 1.06 | 1.125 | 1.7 |  |  |  |  |  |  |  |  |  | 5.8 | 3.4 | 3.2 | 2.1 | 3.6 | 
7 | CCCC(=O)NC1=CC(=O)c2ccc(C=O)nc2C1=O [Compound 26, 7-BUTYRAMIDO-2-FORMYLQUINOLINE-5,8-DIONE] | <0.9 | 0.9 | <0.9 | 1.2 | −10.8% | −79.0% | −61.0% | −17.9% | −93.0% | −35.0% | −63.2% | −81.5% | −50.9% | > 3.3 | 3.3 | > 3.3 | 2.5 | 3 | 
8 | CCCC(=O)NC1=CC(=O)c2ccc(C)nc2C1=O [Compound 30, 7-BUTYRAMIDO-2-METHYLQUINOLINE-5,8-DIONE] | <0.6 | 0.7 | <0.6 | 0.9 | −21.7% | −85.1% | −93.8% | −66.6% | −92.0% | −62.7% | −86.7% | −79.0% | −71.1% | > 3.3 | 2.7 | > 3.3 | 2.2 | 2 | selectivity for leukemia (in words) (Leukemia cell lines; repeat cancer screen): showed selectivity for leukemia
9 | COC1=C(N)C(=O)c2nc(-c3nc(C(=O)O)c(C)c(-c4ccc(OC)cc4O)c3N)ccc2C1=O [10′-Desmethoxystreptonigrin, 10′-desmethoxystreptonigrin] |  |  |  |  |  |  |  |  |  |  |  |  |  |  |  |  |  |  | activity relative to streptonigrin in an assay for the inhibition of the farnesylation of ras oncogene p21 protein (ras oncogene p21 protein): three times more active than streptonigrin
10 | CC(=O)NC1=CC(=O)c2ccc(C=O)nc2C1=O [Compound 23, 7-ACETAMIDO-2-FORMYLQUINOLINE-5,8-DIONE] | 0.4 | 0.9 | 0.7 | 1.35 |  |  |  |  |  |  |  |  |  | 12.5 | 5.5 | 7 | 3.7 |  | CC50 ([10]; 120 h): 2.6 µM; CC50 ([11]; 120 h): 2.5 µM; CC50 [13, 16]: 1.2 µM

Source: patent US6444684B1 (priority 1993, dated 2002)
